Source: patent publication US4758589A, “Tetraphosphine-coordinated gold(I) complexes” (SmithKline Beckman Corporation, priority 1987, dated 1988)
Values joined by “and” are separate entries in the source; they are usually repeats but may differ in a detail not shown here. Identical values can stand only once.

How the values were obtained:
[1] = Struck et al., J. Med. Chem., 9, 414-417 (1966); cited from earlier work
P388 leukemia = experiment: in vivo ip P388 lymphocytic leukemia mouse model; design: species or system mouse (B6D2F1); details: mice bearing ip P388 leukemia; ip Days 1-5; figures separated by slashes are from separate experiments
Excerpt: P388 lymphocytic leukemia is currently the most widely used animal tumor model for screening for antitumor agents and for detailed evaluation of active compounds. This tumor system is widely accepted as an antitumor agent screening tool because it is sensitive to virtually all of the clinically active antineoplastic agents; quantitative and reproducible; amenable for large-scale screening; and predictive for activity in other animal tumor models.
10^6 P388 leukemia cells are inoculated ip in B6D2F1 mice. Twenty-four hours later, if the tumor inoculum proves to be free of bacterial contamination (as determined by 24 hours incubation in thioglycollate broth), animals are randomized into groups of 6 and housed in shoebox cages. The compound to be evaluated is dissolved in a minimal volume of N,N-dimethylacetamide (DMA). An equal volume of saline is added; if the drug comes out of solution an equal volume of polyethoxylated castor oil is added and then saline qs to a concentration such that the desired dose is delivered in 0.5 ml. The final concentration of DMA and polyethoxylated castor oil is 10 percent. Dilutions for lower doses are made with saline so there is a decreasing proportion of organic solvents in the vehicle with decreasing dosage. This vehicle provides a soluble formulation. […] Animals are monitored daily for mortality and experiments are terminated after 45 days. […]

[2] = maximally tolerated dose, mice, ip qD x 10 (Table B); format: in vivo, mouse (B6D2F1); details: B6D2F1 mice, ip qD x 10 regimen
Description: (§1) In this system, groups of eight B6D2F1 mice are inoculated ip with 0.5 ml of a 10% (w:v) brei of B15 melanoma prepared from pooled sc tumors excised at 14-21 days from […] donor mice. Daily treatment is begun 24 hours after tumor implantation and is continued daily for ten (10) days. The route of drug administration is ip. The mice are monitored daily for survival for sixty (60) days. Antitumor activity is assessed by prolongation of median survival time. An ILS of ≥25% indicates activity in this tumor model.
^(b) maximally tolerated dose for B6D2F1 mice on an ip qD .times

[3] = maximally tolerated dose, mice, ip qD x 10 (Table C); format: in vivo, mouse (B6D2F female); details: B6D2F female mice, ip qD x 10 regimen
Description: (§2) Another chemosensitive tumor model is intraperitoneally (ip) implanted M5076 reticulum cell sarocma in mice. In this system B6D2F female mice are inoculated with 0.5 ml of a 10 percent (w:v) brei of M5076 prepared from pooled subcutaneous (sc) tumors excised at about 21 days from C57B1/6 donors. Drugs are administered ip. Daily treatment is begun 24 hours after implantation and is continued for ten days. The treatment regimen for M5076 is more prolonged than for P388 because of the slower growth rate and longer control survival time of the M5076 tumor. A drug is considered active in this tumor model if it produces ≥25% ILS.
^(b) maximally tolerated dose for B6D2F female mice on ip qD ×

B16 melanoma = experiment: in vivo ip B16 melanoma assay; design: species or system mouse (B6D2F1); details: mice bearing ip B16 melanoma; ip daily for 10 days
Description: as §1

[4] = tested on: M5076 reticulum cell sarcoma; experiment: ip M5076 reticulum cell sarcoma tumor model; format: in vivo, mouse (B6D2F); details: mice bearing ip M5076 reticulum cell sarcoma; ip daily for 10 days
Description: as §2

Row | SMILES | cytotoxic activity [1] | ILS (max): maximum increase in lifespan (P388 leukemia) | MTD (maximally tolerated dose) [2] | MTD (maximally tolerated dose) [3] | ILS: maximum increase in lifespan (B16 melanoma) | ILS (MAX): maximum increase in lifespan [4]
1 | c1ccc(P(CCP(c2ccccc2)c2ccccc2)c2ccccc2)cc1 [1,2-bis(diphenylphosphino)ethane] | cytotoxic activity |  |  |  |  | 
2 | [Cl][Au].c1ccc(P(CCP(CCP(c2ccccc2)c2ccccc2)c2ccccc2)CCP(c2ccccc2)c2ccccc2)cc1 (stereo not drawn) [Compound 1, Chloro[1,1,4,7,10,10-hexaphenyl-1,4,7,10-tetraphosphodecane-P^1, P^4, P^7, P^10]gold(I)] |  | 40% and 65% | 2 mg/kg | 2 mg/kg | 37% | 38%
